Measurements taken from patent publication US20230381275A1, “MUSCULAR FUNCTION IMPROVING AGENT FOR SKELETAL MUSCLE OF WHICH FUNCTION IS DEGRADED DUE TO AGING” (OSAKA UNIVERSITY, priority 2020, published 2023).

System: aging-accelerated model mice
Assay: Endurance evaluation test on treadmill (Example 5)
Assay type: in vivo
Conditions: SV group
Description: In this example, the training schedule and SV peptide administration concentration were changed from Example 4, and exercise evaluation (endurance evaluation) was conducted in aging-accelerated model mice when SV peptide was continuously administered. In addition, the cross-sectional area of muscle fibers (gastrocnemius (type I, type IIa, type IIb), extensor digitorum longus, and tibialis anterior muscles) were evaluated in mice that continued training and SV peptide administration until 51 weeks of age.
Aging-accelerated model mice were trained on a treadmill (MK-680; Muromachi Kikai Co., Ltd.) (18 m/min×90 min) and subsequent SV peptide administration was performed according to the schedule in the following table. 30 weeks of age and thereafter, training was performed continuously from Monday to Friday of each week. SV peptide was added to PBS to adjust to a concentration of 1 μg/ml for an injection formulation and localized to the bilateral leg muscles of each mouse anesthetized by inhalation with sevoflurane immediately after training on Tuesday and Friday (SV group; twice weekly administration). Exercise evaluations were performed every other Friday.
Exercise evaluation was performed by endurance assessment, in which the belt speed on the treadmill was increased stepwise at regular intervals. The elapsed time and belt speed increase used for the endurance evaluation test were the same as in Example 4. In the PBS group as a control group, PBS was injected into the bilateral leg muscles instead of SV peptide after training on the treadmill in the same manner as in the SV group.
The results of the endurance evaluation test are shown in FIG. 7 as a graph showing the difference between the mean running distance on the reference date (30 weeks of age) and the mean running distance in each test.
The results of the endurance evaluation test are also shown in FIG. 8 as a graph showing the difference between the mean speed on the reference day and the mean speed on each test day. The mean speed for each group was calculated as the mean of the highest speeds reached by each mouse in each group (mean speeds were calculated in the same manner hereinafter).

Q: What does the source list for “SVVYGLR [SV peptide, peptide consisting of 7 amino acids (SVVYGLR]”?
A: decrease in the mean running distance during the test period (1 μg/ml twice weekly plus training, relative to the PBS group, FIG. 7): able to suppress the decrease in the mean running distance; decrease in mean speed during the test period (1 μg/ml twice weekly plus training, relative to the PBS group, FIG. 8): able to suppress the decrease in mean speed; mean speed (mean of highest speeds reached) relative to reference day (1 μg/ml twice weekly plus training, test from 31 to 39 weeks of age, FIG. 8): increased continuously; mean running distance relative to the reference date (30 weeks of age) (SV peptide 1 μg/ml twice weekly plus training, tests at 31 to 41 weeks of age, FIG. 7): increased from the reference date
